According to US20120225076A1, “FRA-1 TARGET GENES AS DRUG TARGETS FOR TREATING CANCER” (priority 2009, published 2012):
Structures can show the parent of a compound that is named as a salt. Where two headings read alike, the source gives them in different places. Numbered stars: 1 amine (or outer) side, 2 acyl side, 3 side chain; on linkers, the order of the positions; unused ones are H or OH. Bridge positions count the residues as written; N and C are the ends. Square brackets hold non-standard residues; d marks the D form. Peptide text beside a SMILES is read from it. Adda = CO[C@@H](Cc1ccccc1)[C@@H](C)/C=C(C)/C=C/[C@H](N[*:1])[C@H](C)C(=O)[*:2]; dAsp(3S-Me) = C[C@H](C(=O)[*:3])[C@@H](N[*:1])C(=O)[*:2]; d(γGlu) = O=C(O)[C@@H](CCC(=O)[*:2])N[*:1]; NMeDha = C=C(NC)C(=O)O

What was measured:
Aurora kinase B = Aurora kinase B (Homo sapiens, UniProt Q96GD4); details: description of known inhibitor; cited from earlier work
Aurora kinase B, sequence (Q96GD4 whole entry): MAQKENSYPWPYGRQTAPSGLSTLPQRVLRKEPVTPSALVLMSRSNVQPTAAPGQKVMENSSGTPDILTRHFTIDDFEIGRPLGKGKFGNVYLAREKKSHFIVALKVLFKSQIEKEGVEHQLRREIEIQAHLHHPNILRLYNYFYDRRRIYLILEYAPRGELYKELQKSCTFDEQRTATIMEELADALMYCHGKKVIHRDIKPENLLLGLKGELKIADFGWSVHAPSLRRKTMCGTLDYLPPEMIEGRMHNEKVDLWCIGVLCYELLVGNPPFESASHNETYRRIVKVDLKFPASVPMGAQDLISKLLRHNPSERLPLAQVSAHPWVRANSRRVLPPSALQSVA

[1] = tested on: breast cancer cells expressing high levels of Fra-1
PP1 = details: cited from earlier work
PP2A = details: cited from earlier work
E2F1-DNA complex = E2F1-DNA complex (Homo sapiens, UniProt Q01094); details: description of known inhibitor; cited from earlier work
E2F1-DNA complex, sequence (Q01094 whole entry, one chain of several): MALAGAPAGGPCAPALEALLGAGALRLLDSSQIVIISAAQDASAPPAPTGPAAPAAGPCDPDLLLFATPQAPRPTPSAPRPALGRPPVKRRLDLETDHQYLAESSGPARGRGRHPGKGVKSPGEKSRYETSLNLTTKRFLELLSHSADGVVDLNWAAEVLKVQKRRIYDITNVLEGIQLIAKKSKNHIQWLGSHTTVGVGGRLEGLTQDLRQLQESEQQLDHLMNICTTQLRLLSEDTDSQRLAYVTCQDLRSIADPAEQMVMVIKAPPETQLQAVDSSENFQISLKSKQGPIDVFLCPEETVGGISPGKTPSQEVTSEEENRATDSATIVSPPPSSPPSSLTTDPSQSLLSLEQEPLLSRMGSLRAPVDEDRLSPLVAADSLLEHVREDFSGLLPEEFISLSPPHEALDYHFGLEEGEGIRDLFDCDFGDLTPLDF

PP4 = PP4 (Homo sapiens, UniProt P60510); details: description of known inhibitor; cited from earlier work
PP4, sequence (P60510 whole entry): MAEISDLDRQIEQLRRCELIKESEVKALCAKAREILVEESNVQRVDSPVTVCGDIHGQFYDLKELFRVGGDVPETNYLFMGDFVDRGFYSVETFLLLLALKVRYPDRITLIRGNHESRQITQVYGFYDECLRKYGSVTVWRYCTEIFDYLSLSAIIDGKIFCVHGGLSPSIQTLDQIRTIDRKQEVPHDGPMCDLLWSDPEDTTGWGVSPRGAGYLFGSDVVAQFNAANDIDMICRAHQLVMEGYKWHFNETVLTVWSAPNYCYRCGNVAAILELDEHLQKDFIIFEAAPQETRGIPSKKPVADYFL

Adenosine A2b receptor = Adenosine A2b receptor (Homo sapiens, UniProt P29275); details: description of known inhibitor; cited from earlier work
Adenosine A2b receptor, sequence (P29275 whole entry): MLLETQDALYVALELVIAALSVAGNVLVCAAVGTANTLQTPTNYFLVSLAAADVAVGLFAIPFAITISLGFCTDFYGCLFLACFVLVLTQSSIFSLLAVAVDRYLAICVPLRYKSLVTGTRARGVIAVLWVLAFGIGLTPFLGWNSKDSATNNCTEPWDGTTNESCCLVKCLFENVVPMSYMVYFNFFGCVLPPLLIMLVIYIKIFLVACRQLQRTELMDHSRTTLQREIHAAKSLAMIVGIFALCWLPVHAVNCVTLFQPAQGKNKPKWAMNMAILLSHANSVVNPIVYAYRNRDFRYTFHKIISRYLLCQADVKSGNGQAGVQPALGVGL

PRLs = details: cited from earlier work

CCN(CCCOc1ccc2c(Nc3cc(CC(=O)Nc4cccc(F)c4)n[nH]3)ncnc2c1)CCOP(=O)(O)O [AZD1152]
inhibition of Aurora kinase B (Aurora kinase B): selective inhibitor

Nc1nc2ccc(Cl)cc2c2nc(-c3ccco3)nn12 [CGS-15953]
cytotoxicity for breast cancer cells expressing high levels of Fra-1 [1]: *In an in vitro drug screen with the LOPAC library, we identified those two ADORA2B inhibitors as being selectively cytotoxic for breast cancer cells expressing high levels of Fra-1.

COC[C@@H]([C@H](O)[C@H](O)C(=O)NCC[C@H](C)c1nc(/C=C/C[C@@H]2O[C@]3(C[C@@H](O)[C@@H]2C)O[C@H]([C@H](C[C@H](O)[C@H](C)[C@H](O)[C@H](C)/C=C(C)/C(C)=C/C=C/C(C)=C\C#N)OC)[C@H](OP(=O)(O)O)C3(C)C)co1)N(C)C [Calyculin A]
potency for PP1 (PP1): high potency for PP2A, low potency for PP1 | potency for PP2A (PP2A; description of known inhibitor): high potency for PP2A, low potency for PP1

C[C@@]12C(=O)OC(=O)[C@]1(C)[C@H]1CC[C@@H]2O1 [Candharidin]
potency for PP2A (PP2A; description of known inhibitor): selective inhibitor of PP2A

CC1(C(=O)O)C2CCC(O2)C1(C)C(=O)O (centres unmarked) [Cantharidic acid]
potency for PP1 (PP1): inhibits PP2A and PP1 (for use in protein purification) | potency for PP2A (PP2A): inhibits PP2A and PP1 (for use in protein purification)

Cn1cc(NC(=O)c2cc(NC(=O)c3cc(NC=O)cn3C)cn2C)cc1C(=O)NCCC(=N)N [Distamycin]
inhibition of E2F1-DNA complex (E2F1-DNA complex): specifically inhibits E2F1-DNA complex

O=C(O)[C@@H]1[C@H](C(=O)O)[C@H]2CC[C@@H]1O2 [Endothall]
potency for PP2A (PP2A; description of known inhibitor): intermediate potency for PP2A

C[C@@](O)(/C=C/[C@H]1CC=CC(=O)O1)[C@@H](C[C@@H](O)\C=C/C=C\C=C\CO)OP(=O)(O)O [Fostriecin sodium salt]
potency for PP2A (PP2A; description of known inhibitor): potent inhibitors for PP2A and PP4 | potency for PP4 (PP4): potent inhibitors for PP2A and PP4

C=C1C(=O)N[C@H](C)C(=O)N[C@@H](CC(C)C)C(=O)N[C@@H](C(=O)O)[C@H](C)C(=O)N[C@@H](CCCNC(=N)N)C(=O)N[C@@H](/C=C/C(C)=C/[C@H](C)[C@H](Cc2ccccc2)OC)[C@H](C)C(=O)N[C@@H](C(=O)O)CCC(=O)N1C [Microcystin LR] (R[Adda][d(γGlu)][NMeDha][dA]L[dAsp(3S-Me)]-OH; lactam N-7)
potency for PP2A compared to PP1 (PP2A): more potent for PP2A when compared to PP1

C=C1[C@@H](O)[C@@H]2O[C@]3(CC[C@H](/C=C/[C@@H](C)[C@@H]4CC(C)=C[C@@]5(O[C@H](C[C@@](C)(O)C(=O)O)CC[C@H]5O)O4)O3)CC[C@H]2O[C@@H]1[C@@H](O)C[C@H](C)[C@H]1O[C@@]2(CCCCO2)CC[C@H]1C [Okadaic acid]
potency for PP1 (PP1): completely inhibits PP2A at 1 nM (less potent for PP1) | inhibition of PP2A (PP2A; at 1 nM): completely inhibits PP2A at 1 nM (less potent for PP1)

CCCn1c(=O)[nH]c2nc(-c3ccc(S(=O)(=O)N4CCN(Cc5ccccc5)CC4)cc3)[nH]c2c1=O [PSB601]
antagonism of adenosine A2b receptor (Adenosine A2b receptor): specific antagonist

N=C(N)c1ccc(OCCCCCOc2ccc(C(=N)N)cc2)cc1 [Pentamidine]
inhibition of PRLs (PRLs): inhibits all PRLs

Toutomycin
potency for PP2A compared to PP1 (PP2A; PP2A versus PP1): more potent for PP1, less for PP2A
